According to PubChem BioAssay (NCI):
“And” between values parts separate entries of the source, which are not always exact repeats. Equal values may be shown once.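 Growth conditions: 96-well plates. Treatment: test compound, 48 hours, 5 concentrations. Analysis: linear interpolation between bracketing concentrations; unreached endpoints set to highest concentration. At the GI50, growth is halved. TGI: concentration producing complete growth inhibition.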

How the values were obtained:
Assay in all cases: NCI-60 cell line screen, 48 h
[1] = test system: MDA-MB-231 breast
[2] = test system: HCT-116 colon
[3] = test system: HCC-2998 colon
[4] = test system: COLO 205 colon
[5] = test system: OVCAR-5 ovarian
[6] = test system: MALME-3M melanoma
[7] = test system: NCI-H23 lung
[8] = test system: SF-268 CNS
[9] = test system: SW-620 colon
[10] = test system: OVCAR-4 ovarian

Structure (SMILES) | GI50 [1] | TGI [1] | GI50 [2] | TGI [2] | GI50 [3] | TGI [3] | GI50 [4] | TGI [4] | GI50 [5] | TGI [5] | GI50 [6] | TGI [6] | GI50 [7] | TGI [7] | GI50 [8] | TGI [8] | GI50 [9] | TGI [9] | GI50 [10] | TGI [10]
C[C@@H](N)C1CCC(C(=O)Nc2ccncc2)CC1 (stereo partly specified) | > 100 µM | > 100 µM | > 100 µM | > 100 µM | > 100 µM | > 100 µM | > 100 µM | > 100 µM | > 100 µM | > 100 µM | > 100 µM | > 100 µM | > 100 µM | > 100 µM | > 83 µM | > 100 µM | > 100 µM | > 100 µM | > 100 µM | > 100 µM
CCN(CC)CC.CCOc1ccc(NC(=O)N=C=[N-])cc1.[CH-]1CCCCC1.[CH-]1CCCCC1.[CH-]1CCCCC1.[Cl-].[Sn+4] | 0.103 µM | 0.25 µM | 0.014 µM | 0.0289 µM | 0.0255 µM | 0.0669 µM | 0.0184 µM | 0.0422 µM | 0.0427 µM | 0.114 µM | 0.0452 µM | 0.119 µM | 0.0312 µM | 0.0882 µM | 0.0332 µM | 0.0954 µM | 0.0169 µM | 0.0326 µM | 0.0446 µM | 0.139 µM
COC(=O)C(Cc1cnc[nH]1)NC(=O)CNC(=O)CCCn1c(=O)c2c3ccccc3n(C)c2n2nnc(-c3ccccc3)c12 (stereo unspecified) | > 100 µM | > 100 µM | > 100 µM | > 100 µM | > 100 µM | > 100 µM | > 100 µM | > 100 µM | > 100 µM | > 100 µM | > 100 µM | > 100 µM | > 100 µM | > 100 µM | > 100 µM | > 100 µM | > 100 µM | > 100 µM | > 100 µM | > 100 µM
CCOC(=O)C(Cc1c[nH]c2ccc([N+](=O)[O-])cc12)(NC(C)=O)C(=O)OCC | 140 µM | > 1000 µM | 139 µM | > 1000 µM | > 1000 µM | > 1000 µM | > 1000 µM | > 1000 µM | > 1000 µM | > 1000 µM | 114 µM | > 1000 µM | 85 µM | > 1000 µM | 188 µM | > 1000 µM | > 1000 µM | > 1000 µM | – | –
O=C(CCCCCCCn1cc(-c2cccnc2)nn1)Nc1ccccc1-c1ccccc1 | 21.3 µM | > 100 µM | 0.0361 µM | > 32.9 µM | 0.385 µM | > 61.8 µM | 1.92 µM | 49.7 µM | 0.422 µM | > 100 µM | 5.71 µM | 41.8 µM | 13.8 µM | > 100 µM | 20.4 µM | > 100 µM | 0.0526 µM | > 100 µM | 10.9 µM | > 100 µM
COc1ccccc1/C=C/C(=O)c1c(O)cc2occc2c1OC | 33.1 µM | > 100 µM | 40.4 µM | > 100 µM | > 100 µM | > 100 µM | > 100 µM | > 100 µM | > 100 µM | > 100 µM | 18.9 µM | 80.6 µM | 22.4 µM | > 100 µM | 22.2 µM | > 100 µM | > 100 µM | > 100 µM | > 100 µM | > 100 µM
O=C(N/N=C/c1ccccc1O)C(O)(c1ccccc1)c1ccccc1 | 15 µM | > 100 µM | 2.95 µM | > 100 µM | 17.4 µM | > 100 µM | 3.43 µM | > 100 µM | > 100 µM | > 100 µM | > 100 µM | > 100 µM | > 100 µM | > 100 µM | 8.69 µM | > 100 µM | > 100 µM | > 100 µM | 3.43 µM | > 100 µM
Cc1cc(C(=O)Nc2nc3cccc(Cl)c3n2[C@@H]2CCCCN(C(=O)/C=C/CN(C)C)C2)ccn1 | 13 µM | 28.1 µM | 6.5 µM | 19.5 µM | 15.6 µM | 30.9 µM | 7.69 µM | 22.4 µM | 17.7 µM | 47.6 µM | 18.2 µM | 34 µM | 12.9 µM | 38 µM | 10.6 µM | 28.3 µM | 14.6 µM | 31.5 µM | 7.18 µM | 26.4 µM
C[C@H](N)C(=O)N[C@@H]1[C@H]2C(=C(O)C[C@@H](O)[C@@H]2O)C(=O)O[C@]1(C)C(Cl)Cl | – | 1.14 µM | 0.205 µM | 1.85 µM and 1.33 µM | 0.224 µM | 0.745 µM and 1.16 µM | 0.13 µM | 0.212 µM and 0.37 µM | – | 7.44 µM and 3.44 µM | – | 1.64 µM and 1.33 µM | 0.226 µM | 1.04 µM and 1.1 µM | 0.15 µM | 2.8 µM and 2.59 µM | 0.221 µM | 6.6 µM and 3 µM | 0.263 µM | 3.03 µM and 0.841 µM
O=C(c1ccc(OCCN2CCCCC2)cc1)c1c(-c2ccc(O)cc2)sc2cc(O)ccc12 | 10.4 µM and 9.02 µM | 23.2 µM and 23.6 µM | 3.68 µM and 8.5 µM | 14 µM and 42.7 µM | 6.37 µM and 19.1 µM | 19.2 µM and 36.8 µM | 12.3 µM and 9.73 µM | 24.7 µM and 40.6 µM | 16 µM and 20.6 µM | 30.8 µM and 43.7 µM | 6.05 µM and 13.5 µM | 23.5 µM and 28.9 µM | 10.8 µM and 18.5 µM | 27 µM and 45.2 µM | 6.67 µM and 12.8 µM | 20.1 µM and 35.5 µM | 7.64 µM and 13.4 µM | 22 µM and 39.2 µM | 7.8 µM and 12.1 µM | 20.5 µM and 36.8 µM
CCc1c2c(nc3cc4c(c(N)c13)OCO4)-c1cc3c(c(=O)n1C2)COC(=O)[C@]3(O)CC | 0.0246 µM and 0.0488 µM | > 100 µM | 0.174 µM | 24.6 µM | 0.0317 µM and 0.0431 µM | 6.38 µM and 0.676 µM | 0.696 µM | – | 0.702 µM and 0.0948 µM | 0.409 µM | 0.0276 µM | 4.25 µM | < 0.001 µM | – | – | 15.2 µM | – | > 100 µM | 0.13 µM and 0.35 µM | > 100 µM
CC1=C(C(=O)Nc2ccccc2C)C(c2ccc(C3C(C(=O)Nc4ccccc4C)=C(C)NC(C)=C3C(=O)Nc3ccccc3C)cc2)C(C(=O)Nc2ccccc2C)=C(C)N1 | – | 15.2 µM | – | 7.17 µM | – | 9.31 µM | – | 14.5 µM | – | 31.8 µM | – | 6.13 µM | – | 9.6 µM | – | 7.18 µM | – | 6.3 µM | – | 22.1 µM
